Read-outs that look alike come from different tables or passages of the source.
Columns and labels:
[1] = biological target: T1, recombinant yeast Hsp90 protein (rHsp90) (Saccharomyces cerevisiae, UniProt P02829); experiment: Hsp90 ATPase assay; type: biochemical; details: rHsp90 100 μg/mL, ATP 100 μM, 37° C., two hours, BIOMOL GREEN; read-out: IC50 value (concentration for 50% inhibition of ATP activity)
T1 construct: made in house; host or cells: Escherichia coli
Description: An Hsp90 ATPase assay was performed using a recombinant yeast Hsp90 protein (hereinafter called rHsp90). Yeast Hsp90 DNA was cloned from a yeast genomic DNA library according to a conventional method. The cloned yeast Hsp90 DNA was incorporated into a plasmid for expression in Escherichia coli, and the plasmid was expressed in Escherichia coli to obtain rHsp90.
The test compound was dissolved in DMSO to 10 mM. The dissolved solution was diluted with DMSO to eight concentrations ranging in three-fold dilutions from 4 mM. Each diluted solution was further 10-fold diluted with an assay buffer (100 mM Tris, pH 7.4, 20 mM KCl, 6 mM MgCl2) (concentration of each test compound solution: 400 μM, 133 μM, 44.4 μM, 14.8 μM, 4.94 μM, 1.65 μM, 0.549 μM, 0.183 μM; DMSO concentration: 10%).
rHsp90 was dissolved in a TE buffer (20 mM Tris, pH 7.4, 1 mM EDTA) to a concentration of 2.531 mg/mL. The dissolved solution was diluted with assay buffer to 125 μg/mL and dispensed to a 96-well assay plate at 40 μL per well (final concentration: 100 μg/mL).
The test compound solution was dispensed at 5 μL per well, and then the solutions in the respective wells were mixed using a plate mixer. 100 mM ATP (Sigma, Catalog No. A-7699) was diluted with assay buffer to 1 mM and dispensed at 5 μL per well (final concentration: 100 μM). The solutions in the respective wells were mixed using a plate mixer, and then the assay plate was allowed to stand in an incubator set at 37° C. for two hours.
BIOMOL GREEN Reagent (BIOMOL, Catalog No. AK-111) was dispensed at 100 μL per well, and the reaction was terminated. The solutions in the respective wells were mixed by pipetting (three times), and then 34% sodium citrate was dispensed at 10 μL per well. The solutions in the respective wells were mixed by pipetting (three times), and then the assay plate was left to stand at room temperature for 10 minutes. The absorbance at 630 nm of each well was measured with a microplate reader.
The ratio of the absorbance of the test compound-added group to the absorbance of the test compound-free group (T/C value) was determined by the following calculation formula, based on the assumption that the absorbance of the well to which the test compound and rHsp90 were added was A, the absorbance of the well to which only rHsp90 was added was B, and the absorbance of the well to which neither the test compound nor rHsp90 was added was C. T/C=(A−C)/(B−C)
Further, the concentration for 50% inhibition of ATP activity (IC50 value) was calculated using GraphPad Prism 4 (GraphPad Software, Inc.).

[2] = system: human lung cancer cell line NCI-H460; experiment: Cell growth inhibition assay (MTT), NCI-H460; type: cell-based; details: read-out: GI50 value (50% growth inhibitory concentration)
Description: (§1) A cell growth inhibition assay was performed using two types of cells (human breast cancer cell line SK-BR-3 and human lung cancer cell line NCI-H460).
(§2) Cells of each type were suspended in a medium and seeded into a 96-well multi-well plate at 500 cells/150 μl/well. The test compound was dissolved in DMSO, and this was diluted with medium to prepare a sample solution (DMSO concentration: 0.5% or less). On the day following the seeding, 50 μL of DMSO-containing medium to which the test compound was not added (hereinafter called DMSO diluted solution; DMSO concentration: 0.5% or less) or the sample solution was added to the cells. An MTT assay was performed immediately after and 72 hours after adding the sample solution or the DMSO diluted solution to the cells. The MTT assay was performed as follows.
(§3) 5 mg/mL of an MTT (3-(4,5-dimethylthiazol-2-yl)-2,5-diphenyltetrazolium bromide) solution was added at 20 μL per well. Thereafter, the plate was incubated at 37° C. in 5% CO2 for four hours. The plate was centrifuged at 1200 rpm for five minutes, and then the culture supernatant was removed by suction using a dispenser. DMSO was added at 150 μL per well, and the generated formazan was dissolved. The plate was stirred using a plate mixer to uniformly color the respective wells. The absorbance of each well was measured using a plate reader at an OD of 540 nm with a reference of 660 nm.
(§4) T/C (%) for each concentration was determined by the following calculation formula and a dose-response curve was drawn to calculate the 50% growth inhibitory concentration (GI50 value), based on the assumption that the OD value measured immediately after adding the sample solution was S, the OD value measured 72 hours after adding the sample solution was T, and the OD value measured 72 hours after adding the DMSO diluted solution was C. T/C(%)=(T−S)/(C−S)×100

[3] = system: human breast cancer cell line SK-BR-3; experiment: Cell growth inhibition assay (MTT), SK-BR-3; type: cell-based; details: read-out: GI50 value (50% growth inhibitory concentration)
Description: as §1, §2, §3, §4

[4] = Homo sapiens, NCI-H460, MTT assay, 72 hours
[5] = Homo sapiens, SK-BR-3, MTT assay, 72 hours

T1 sequence (P02829 whole entry): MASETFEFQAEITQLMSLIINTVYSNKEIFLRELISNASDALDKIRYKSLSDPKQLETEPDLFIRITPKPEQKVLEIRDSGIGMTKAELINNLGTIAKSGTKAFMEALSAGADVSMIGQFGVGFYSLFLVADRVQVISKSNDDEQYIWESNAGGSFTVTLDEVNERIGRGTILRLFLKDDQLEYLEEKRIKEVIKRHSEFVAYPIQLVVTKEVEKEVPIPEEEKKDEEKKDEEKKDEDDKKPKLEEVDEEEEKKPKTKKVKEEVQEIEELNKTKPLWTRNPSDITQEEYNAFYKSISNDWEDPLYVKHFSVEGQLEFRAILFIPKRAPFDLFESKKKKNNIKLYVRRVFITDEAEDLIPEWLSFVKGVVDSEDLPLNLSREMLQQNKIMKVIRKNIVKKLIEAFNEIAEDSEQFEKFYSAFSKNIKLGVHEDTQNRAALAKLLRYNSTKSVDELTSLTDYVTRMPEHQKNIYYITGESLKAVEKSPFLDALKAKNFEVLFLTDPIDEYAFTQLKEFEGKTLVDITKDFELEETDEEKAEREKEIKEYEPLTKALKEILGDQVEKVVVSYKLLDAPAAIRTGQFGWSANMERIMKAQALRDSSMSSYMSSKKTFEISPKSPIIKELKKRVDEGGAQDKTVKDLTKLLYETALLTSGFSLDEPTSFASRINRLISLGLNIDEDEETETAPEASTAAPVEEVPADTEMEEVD

Molecule	IC50 [1] [nM]	GI50 [2, 4] [nM]	GI50 [3, 5] [nM]	GI50 ([2]; NCI-H460, MTT assay, 72 hours) [nM]	GI50 ([3]; SK-BR-3, MTT assay, 72 hours) [nM]	GI50 ([2]; Homo sapiens, NCI-H460, 72 h) [nM]	GI50 ([3]; Homo sapiens, SK-BR-3, 72 h) [nM]
N^8-(S)-Cyclopropyl-2-[(4-methoxy-3,5-dimethylpyridin-2-yl)methyl]-2,7,8,9-tetrahydro-6-thia-1,2,3,5-tetraazabenzo[cd]azulene-4,8-diamine [Example 181]	3100	–	–	76	45	–	–
COc1c(C)cnc(Cn2nc3c4c(nc(N)nc42)SCC(C(=O)N2CCC(F)(F)C2)=C3)c1C [Example 218, 8-[(3,3-Difluoropyrrolidin-1-yl)carbonyl]-2-[(4-methoxy-3,5-dimethylpyridin-2-yl)methyl]-2,7-dihydro-6-thia-1,2,3,5-tetraazabenzo[cd]azulen-4-amine]	2300	–	–	–	–	160	75
COc1c(C)cnc(Cn2nc3c4c(nc(N)nc42)SCC(c2cccnc2)=C3)c1C [Example 223, 2-[(4-Methoxy-3,5-dimethylpyridin-2-yl)methyl]-8-pyridin-3-yl-2,7-dihydro-6-thia-1,2,3,5-tetraazabenzo[cd]azulen-4-amine]	1100	–	–	–	–	250	140
COc1c(C)cnc(Cn2nc3c4c(nc(N)nc42)SCC(CCn2ccnc2)=C3)c1C [Example 137, 8-[2-(1H-Imidazol-1-yl)ethyl]-2-[(4-methoxy-3,5-dimethylpyridin-2-yl)methyl]-2,7-dihydro-6-thia-1,2,3,5-tetraazabenzo[cd]azulen-4-amine]	950	–	–	–	–	200	67
Nc1nc2c3c(nn(Cc4cc5ccccc5cn4)c3n1)CCS2 [Example 153]	1900	5900	2600	–	–	–	–
Nc1nc2c3c(nn(Cc4ccc5c(c4)OCO5)c3n1)CCS2 [Example 167, 2-(1,3-Benzodioxol-5-ylmethyl)-7,8-dihydro-2H-6-thia-1,2,3,5-tetraazaacenaphthylen-4-amine]	5400	7300	3300	–	–	–	–
COc1c(C)cnc(Cn2nc3c4c(nc(N)nc42)SC(C(=O)NC2CC2)C3)c1C (stereo not drawn) [Example 12, 4-Amino-N-cyclopropyl-2-[(4-methoxy-3,5-dimethylpyridin-2-yl)methyl]-7,8-dihydro-2H-6-thia-1,2,3,5-tetraazaacenaphthylene-7-carboxamide]	2200	460	150	–	–	–	–

Further molecules by falling IC50 [1], results first:

IC50 [1] [nM]	GI50 [2, 4] [nM]	GI50 [3, 5] [nM]	Molecule	GI50 ([2]; NCI-H460, MTT assay, 72 hours) [nM]	GI50 ([3]; SK-BR-3, MTT assay, 72 hours) [nM]	GI50 ([2]; Homo sapiens, NCI-H460, 72 h) [nM]	GI50 ([3]; Homo sapiens, SK-BR-3, 72 h) [nM]
1200	300	130	COc1c(C)cnc(Cn2nc3c4c(nc(N)nc42)SCC(N2CCC[C@H]2C(N)=O)C3)c1C (stereo partly drawn) [Example 67, 1-{4-Amino-2-[(4-methoxy-3,5-dimethylpyridin-2-yl)methyl]-2,7,8,9-tetrahydro-6-thia-1,2,3,5-tetraazabenzo[cd]azulen-8-yl}-L-prolinamide]	–	–	–	–
1200	159	137	CNC(=O)C1Cc2nn(Cc3ncc(C)c(OC)c3C)c3nc(N)nc(c23)S1 (stereo not drawn) [Example 9, 4-Amino-2-[(4-methoxy-3,5-dimethylpyridin-2-yl)methyl]-N-methyl-7,8-dihydro-2H-6-thia-1,2,3,5-tetraazaacenaphthylene-7-carboxamide]	–	–	–	–
1000	224	148	COc1c(C)cnc(Cn2nc3c4c(nc(N)nc42)SCC3)c1C [Example 2, 2-[(4-Methoxy-3,5-dimethylpyridin-2-yl)methyl]-7,8-dihydro-2H-6-thia-1,2,3,5-tetraazaacenaphthylen-4-amine]	–	–	–	–
970	86	52	COc1c(C)cnc(Cn2nc3c4c(nc(N)nc42)SCC=C3)c1C [Example 36, 2-[(4-Methoxy-3,5-dimethylpyridin-2-yl)methyl]-2,7-dihydro-6-thia-1,2,3,5-tetraazabenzo[cd]azulen-4-amine]	–	–	–	–
970	760	410	COc1ccnc(Cn2nc3c4c(nc(N)nc42)SCC3)c1C [Example 164, 2-[(4-Methoxy-3-methylpyridin-2-yl)methyl]-7,8-dihydro-2H-6-thia-1,2,3,5-tetraazaacenaphthylen-4-amine]	–	–	–	–
870	69	44	COc1c(C)cnc(Cn2nc3c4c(nc(N)nc42)SC(C#N)C3)c1C (stereo not drawn) [Example 4, 4-Amino-2-[(4-methoxy-3,5-dimethylpyridin-2-yl)methyl]-7,8-dihydro-2H-6-thia-1,2,3,5-tetraazaacenaphthylene-7-carbonitrile]	–	–	–	–
820	650	320	COc1c(C)cnc(Cn2nc3c4c(nc(N)nc42)SCC(N(C)C(C)=O)C3)c1C (stereo not drawn) [Example 99, N-{4-Amino-2-[(4-methoxy-3,5-dimethylpyridin-2-yl)methyl]-2,7,8,9-tetrahydro-6-thia-1,2,3,5-tetraazabenzo[cd]azulen-8-yl}-N-methylacetamide]	–	–	–	–

Reference: patent US8158638B2, “Pyrazolopyrimidine derivative” (Daiichi Sankyo Company, Limited, priority 2006, dated 2012)
